The text below walks through data of article PMC3030600, “Characterizing Ligand-Gated Ion Channel Receptors with Genetically Encoded Ca^++ Sensors” (PLoS ONE, 2011).

Read-outs that look alike come from different tables or passages of the source.

For one assay, the system named is α7/5-HT3A. Particulars: cited from earlier work; for EC50: Ca2+ dye (Fluo-3-AM) on HEK293 cells expressing human receptors, read-out: EC50, α7/5-HT3A (non-CNiFER).
Assay [1] addresses human α7 nicotinic acetylcholine receptors (Homo sapiens, UniProt P36544). Kind of assay: cell-based. It is filed as cell-based.
Assay [2] has as its target α7-nAChR (Homo sapiens, UniProt P36544). Particulars: read-out: EC50, α7-nAChR (non-CNiFER); potential-sensitive dye, human receptors.
Assay [3] addresses T1, mouse 5-HT3A serotonin receptors (Mus musculus, UniProt P23979).
T1 sequence (P23979 24-489): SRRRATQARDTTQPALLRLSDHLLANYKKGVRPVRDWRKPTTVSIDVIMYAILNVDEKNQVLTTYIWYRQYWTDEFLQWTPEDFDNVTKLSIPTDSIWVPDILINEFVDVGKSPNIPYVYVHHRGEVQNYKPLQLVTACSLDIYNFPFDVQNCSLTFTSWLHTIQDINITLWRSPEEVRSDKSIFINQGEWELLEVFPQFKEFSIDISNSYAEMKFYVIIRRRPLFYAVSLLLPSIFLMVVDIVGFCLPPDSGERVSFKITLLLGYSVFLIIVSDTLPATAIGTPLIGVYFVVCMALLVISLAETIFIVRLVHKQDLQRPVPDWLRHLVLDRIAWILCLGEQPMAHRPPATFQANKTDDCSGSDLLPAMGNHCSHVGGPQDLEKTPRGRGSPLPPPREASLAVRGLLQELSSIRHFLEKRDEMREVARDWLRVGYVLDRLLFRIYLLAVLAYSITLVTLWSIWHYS
Kind of assay: 5-HT3A CNiFER FRET Flex assay. Particulars: for mode of antagonism / Schild Slope: vs 5-HT; for Schild Slope: in aCSF. Type of assay: cell-based. The method, then: Cells were cultured in 10 cm plates with DMEM (Mediatech, Manassas, VA) supplemented with 10% FBS (Gemini Bio-Products, West Sacramento, CA; Atlanta Biologicals, Lawrenceville, GA) and 1% Glutamine (Invitrogen), and incubated at 37°C with 10% CO2. Cells were selected at ∼70% confluency and plated the day before using 100 µl volumes per well into black, transparent flat-bottom, TC treated 96-well plates (Thermo, Waltham, MA; E&K, Greiner Campbell, CA). Plates were removed from the incubator the next day and the media was replaced with 100 µl of artificial cerebral spinal fluid (aCSF) [containing 121 mM NaCl, 2.4 mM Ca^2+, 1.3 mM Mg^2+, 5 mM KCl, 26 mM NaHCO3, 1.2 mM Na2HPO4, 10 mM glucose, 5 mM Hepes Na^+, pH 7.4]. For all assays performed on α7-nAChR CNiFERs 10 µM of the PAM, PNU-120596 (Tocris, Ellisville, MO), was prepared in aCSF. In the case of antagonist measurements, antagonists, at 1.5 times the final desired concentration, were prepared in aCSF. For non-CNiFER cell lines, Blue Membrane Potential dye (Molecular Devices, Sunnyvale, CA) was prepared in aCSF and diluted 2 fold the recommended dilution. Plates were incubated for at least 30 min at 37°C and 10% CO2 for any assay that included antagonist, dye, or PAM modification to the aCSF. Following incubation, plates were removed and placed into the Molecular Devices FlexStation III instrument and run at 37°C. Injection rates varied between […], and 50 µl of the specified agonist prepared at 3x final concentration in the aforementioned aCSF solution was injected after 30 s of baseline measurement. […] All wells were replicated (two or three times) in the same plate. Mean peak FRET ratios calculated from replicates were exported and plotted against agonist concentrations using Graphpad Prism 4 (Carlsbad, CA). A sigmoidal concentration-response (variable slope) regression of the mean peak FRET ratios was fit to generate a concentration-response curve and obtain an EC50 value.
To measure potencies of competitive antagonists, three concentration-response curves with different antagonist concentrations were compared to a control curve (without antagonist). Mean FRET responses generated concentration response curves, and antagonist dependent shifts in EC50 values were used to calculate dose ratios (DR), as a concentration ratio of EC50'/EC50 for the specified agonist (where EC50' is in the presence of the antagonist at the specified concentration). DRs were used to produce a Schild regression plot for analysis of competitive antagonism and generate a Ka value. Analysis consisted of potting Log (DR-1) against –Log [Antagonist]. The Schild Ka value for competitive antagonists was calculated from the x-intercept at y = 0, as the –Log (Ka), [38]. All errors reported are arithmetic standard deviations unless otherwise noted.

In assay [4] the test system is α7-nAChR. Conditions: cited from earlier work.

Chain of human α7 nicotinic acetylcholine receptors (P36544 23-502): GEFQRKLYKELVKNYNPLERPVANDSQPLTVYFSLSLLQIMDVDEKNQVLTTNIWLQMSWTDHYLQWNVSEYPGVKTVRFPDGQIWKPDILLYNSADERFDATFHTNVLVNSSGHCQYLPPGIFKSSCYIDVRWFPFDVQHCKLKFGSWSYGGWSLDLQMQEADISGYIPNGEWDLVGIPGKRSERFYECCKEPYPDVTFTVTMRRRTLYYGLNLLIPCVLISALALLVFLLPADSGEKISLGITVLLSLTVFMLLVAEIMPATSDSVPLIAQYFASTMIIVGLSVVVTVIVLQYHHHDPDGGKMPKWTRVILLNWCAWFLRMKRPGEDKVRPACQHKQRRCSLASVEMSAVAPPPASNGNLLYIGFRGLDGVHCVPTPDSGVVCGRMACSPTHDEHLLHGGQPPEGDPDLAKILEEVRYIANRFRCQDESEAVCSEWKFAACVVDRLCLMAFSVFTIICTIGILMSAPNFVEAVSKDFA
Chain of α7-nAChR (Homo sapiens, UniProt P36544) (P36544 23-502): as above

`Clc1ccc(C2CC3CCC2N3)cn1` (racemic) [(±)-Epibatidine, (±)-epibatidine]: the EC50 is 180 ± 20 nM in the assay on α7/5-HT3A; 28 nM in assay [1] (read-out: EC50, α7-nAChR CNiFER); 3.6 nM in assay [1] (read-out: EC50 of agonist curve); 17 ± 2.6 nM at α7-nAChR [2].

In general, Hill coefficient refers to a measure of the steepness of the concentration-response curve. In assay [3] (5-HT3A CNiFER concentration-response (Figure 6A)), `NCCc1c[nH]c2ccc(O)cc12` [5-HT, 5-Hydroxytryptamine] yielded a Hill coefficient of 2.6.

Usually IC50 stands for the concentration that gives 50% inhibition. For the compound `CCN1C[C@]2(COC(=O)c3ccccc3N3C(=O)C[C@H](C)C3=O)CC[C@H](OC)[C@@]34[C@@H]5C[C@H]6[C@H](OC)[C@@H]5[C@](O)(C[C@@H]6OC)[C@@](O)([C@@H](OC)[C@H]23)[C@@H]14` [MLA, methyllycaconitine], in the assay with α7/5-HT3A (read-out: IC50 (non-CNiFER)), the IC50 is 36 ± 13 nM. Moreover, in assay [1], the Kd came to 3.2 nM, the “Schild Slope” value is recorded as −1.2±0.3 and the “mode of antagonism (Schild analysis)” value is listed as “competitively”. The “half time for dissociation” value with α7-nAChR [4] was 2.3 min.

Regarding `Cc1nccn1CC1CCc2c(c3ccccc3n2C)C1=O` (stereo not shown) [Ondansetron, ondansetron], in assay [3] (read-out: CNiFER Ka (Schild)), the Kd amounted to 1.6 ± 0.9 nM. For the same compound, in assay [3], the mode of antagonism entry is listed as “near competitive block” and the “Schild Slope” value is recorded as −1.3±0.04. Moreover, the “Schild Slope” value in assay [3] (listed as ondansetron) is recorded as -1.3±0.04.

For `CN1[C@@H]2CC[C@H]1C[C@@H](OC(=O)c1c[nH]c3ccccc13)C2` [tropisetron], the mode of antagonism entry in assay [3] is reported as “greater non-competitive component”.

On to (−)-Nicotine, for which, in the assay with α7/5-HT3A, the EC50 is 19100 nM.
